Source: patent EP4624465A1, “COMPOUND SERVING AS DDR1 KINASE INHIBITOR, AND MEDICINE” (Nippon Shinyaku Co., Ltd., priority 2022, dated 2024)
Counter-ions that a name gives are not always drawn.

Assays:
DDR1 kinase [1] = target: T1, DDR1 kinase (Homo sapiens, UniProt Q08345); assay: Evaluation of DDR1 kinase inhibition in DDR1-expressing U2OS cells (type I collagen stimulation, PathHunter detection); type: cell-based; set-up: host or cells: U2OS; settings: type I collagen 50 µg/mL stimulation, duplicate, read-out: DDR-1 IC50
Protocol: The solution was further diluted in an E-MEM medium (Fujifilm Wako Pure Chemicals, 051-07615) containing 10% fetal bovine serum (FBS, Gibco, 10270106) to 60000, 6000, 600, 60, 6, and 0.6 nM to prepare test substance solutions. 2. […] On the following day, after the plate was left at room temperature for 1 hour, a detection solution was added to the wells at […] according to the handling instructions for the PathHunter® Detection Kit (DiscoverX, 93-0001), and then incubated at room temperature for 2 hours. After the incubation, a luminescence intensity was measured by Envision (Perkin-Elmer). Tests were performed in duplicate. 3.
Target sequence in this assay (Q08345 19-913): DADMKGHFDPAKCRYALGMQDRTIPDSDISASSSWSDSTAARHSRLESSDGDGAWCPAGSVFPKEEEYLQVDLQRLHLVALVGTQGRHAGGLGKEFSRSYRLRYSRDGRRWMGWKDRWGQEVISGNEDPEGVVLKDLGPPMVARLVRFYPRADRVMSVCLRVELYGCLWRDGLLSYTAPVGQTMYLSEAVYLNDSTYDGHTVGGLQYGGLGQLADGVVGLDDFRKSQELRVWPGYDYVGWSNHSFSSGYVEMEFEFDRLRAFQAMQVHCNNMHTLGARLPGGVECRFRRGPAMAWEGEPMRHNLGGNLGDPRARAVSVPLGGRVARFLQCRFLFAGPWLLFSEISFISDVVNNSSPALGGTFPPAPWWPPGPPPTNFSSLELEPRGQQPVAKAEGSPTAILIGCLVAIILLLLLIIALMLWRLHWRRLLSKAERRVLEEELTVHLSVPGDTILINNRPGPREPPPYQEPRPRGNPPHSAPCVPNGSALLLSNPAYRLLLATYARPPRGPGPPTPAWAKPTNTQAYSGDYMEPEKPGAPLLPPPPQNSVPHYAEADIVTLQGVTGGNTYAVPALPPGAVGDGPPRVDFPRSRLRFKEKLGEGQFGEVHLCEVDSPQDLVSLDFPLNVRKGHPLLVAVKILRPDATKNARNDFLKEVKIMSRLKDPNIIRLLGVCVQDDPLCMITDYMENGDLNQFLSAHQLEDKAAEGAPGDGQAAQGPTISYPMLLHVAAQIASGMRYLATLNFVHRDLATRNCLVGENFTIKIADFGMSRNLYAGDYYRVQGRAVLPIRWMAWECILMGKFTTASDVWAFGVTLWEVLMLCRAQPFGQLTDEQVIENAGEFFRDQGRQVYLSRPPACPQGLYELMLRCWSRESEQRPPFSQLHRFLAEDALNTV

DDR1 kinase [2] = target: T1, DDR1 kinase; assay: Evaluation of DDR1 kinase inhibition (LANCE Ultra TR-FRET kinase assay); type: biochemical; set-up: purchased Carna Biosciences 08-113; settings: DDR1 protein 0.5 nM, LANCE Ultra ULight-poly GAT substrate, 2 hours at room temperature, duplicate; read-out: DDR-1 IC50
Target sequence in this assay (Q08345 19-876 isoform Q08345-2 limits assumed): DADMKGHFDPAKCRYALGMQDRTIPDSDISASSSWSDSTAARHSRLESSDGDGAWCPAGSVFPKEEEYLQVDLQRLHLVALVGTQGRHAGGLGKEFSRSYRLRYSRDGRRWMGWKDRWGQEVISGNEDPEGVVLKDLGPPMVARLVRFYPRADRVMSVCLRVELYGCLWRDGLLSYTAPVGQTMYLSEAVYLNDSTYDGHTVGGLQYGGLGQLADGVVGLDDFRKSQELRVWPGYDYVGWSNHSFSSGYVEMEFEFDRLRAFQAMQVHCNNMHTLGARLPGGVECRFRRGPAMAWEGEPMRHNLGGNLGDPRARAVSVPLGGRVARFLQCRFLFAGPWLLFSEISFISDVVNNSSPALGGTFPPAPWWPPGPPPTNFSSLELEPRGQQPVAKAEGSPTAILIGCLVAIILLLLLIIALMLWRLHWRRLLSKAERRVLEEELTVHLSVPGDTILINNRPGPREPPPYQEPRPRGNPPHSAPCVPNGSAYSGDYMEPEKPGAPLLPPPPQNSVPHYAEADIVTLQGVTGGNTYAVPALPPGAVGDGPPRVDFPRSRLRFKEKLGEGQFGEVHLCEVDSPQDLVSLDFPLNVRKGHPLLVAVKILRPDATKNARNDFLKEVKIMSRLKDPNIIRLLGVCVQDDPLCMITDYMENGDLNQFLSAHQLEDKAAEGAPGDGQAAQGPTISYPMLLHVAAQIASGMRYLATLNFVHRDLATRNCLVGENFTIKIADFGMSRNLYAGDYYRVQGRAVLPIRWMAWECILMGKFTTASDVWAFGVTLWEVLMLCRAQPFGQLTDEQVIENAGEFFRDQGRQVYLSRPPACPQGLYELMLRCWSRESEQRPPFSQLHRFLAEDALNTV

Row | SMILES | IC50 (DDR1 kinase [1]) [nM] | IC50 (DDR1 kinase [2]) [nM]
1 | O=C(c1ccnc(NC2CC2)c1)N1CC(c2nn(CC(=O)N3CCC[C@H]3C(F)(F)F)c3cccnc23)C1 [Compound E-121, 2-(3-{1-[2-(cyclopropylamino)pyridine-4-carbonyl]azetidin-3-yl}-1H-pyrazolo[4,3-b]pyridin-1-yl)-1-[(2S)-2-(trifluoromethyl)pyrrolidin-1-yl]ethan-1-one] | 170 | 24
2 | Nc1cc(C(=O)N2CC(c3nn(Cc4cn(CC5CC5)nn4)c4cccc(F)c34)C2)ccn1 [Compound E-37, 4-[3-(1-{[1-(cyclopropylmethyl)-1H-1,2,3-triazol-4-yl]methyl}-4-fluoro-1H-indazol-3-yl)azetidine-1-carbonyl]pyridin-2-amine hydrochloride] | 2600 | 50
3 | Nc1nccc(C(=O)N2CC(c3nn(CC(=O)N4CCC[C@H]4C(F)(F)F)c4ccccc34)C2)c1F [Compound E-196, 2-{3-[1-(2-amino-3-fluoropyridine-4-carbonyl)azetidin-3-yl]-1H-indazol-1-yl}-1-[(28)-2-(trifluoromethyl)pyrrolidin-1-yl]ethan-1-one] | 43 | 2.8
4 | O=C(c1cnc(NC2CC2)s1)N1CC(c2nn(CC(=O)N3CCC[C@H]3C(F)(F)F)c3cc(F)cc(F)c23)C1 [Compound E-98, 2-(3-{1-[2-(cyclopropylamino)-1,3-thiazole-5-carbonyl]azetidin-3-yl]-4,6-difluoro-1H-indazol-1-yl)-1-[(2S)-2-(trifluoromethyl)pyrrolidin-1-yl]ethan-1-one] | 3700 | 86
5 | CN(CC(F)(F)F)C(=O)Cn1nc(C2CN(C(=O)c3nc(N)ncc3F)C2)c2cc(Cl)ccc21 [Compound E-21, 2-{3-[1-(2-amino-5-fluoropyrimidine-4-carbonyl)azetidin-3-yl]-5-chloro-1H-indazol-1-yl}-N-methyl-N-(2,2,2-trifluoroethyl)acetamide] | 140 | 1.5
6 | Cc1c(C(=O)N2CC(c3nn(CC(=O)N4CCO[C@H](C(F)(F)F)C4)c4cc(F)cc(F)c34)C2)ccnc1N [Compound E-89, 2-{3-[1-(2-amino-3-methylpyridine-4-carbonyl)azetidin-3-yl]-4,6-difluoro-1H-indazol-1-yl]-1-[(2S)-2-(trifluoromethyl)morpholin-4-yllethan-1-one hydrochloride] | 400 | 45
7 | O=C(c1ccc2[nH]nnc2c1)N1CC(c2nn(CC(=O)N3CCC[C@H]3C(F)(F)F)c3cc(F)cc(F)c23)C1 [Compound E-169, 2-{3-[1-(1H-1,2,3-benztriazole-5-carbonyl)azetidin-3-yl]-4,6-difluoro-1H-indazol-1-yl}-1-[(2S)-2-(trifluoromethyl)pyrrolidin-1-yl]ethan-1-one] | 1100 | 9.8
8 | Nc1cc(C(=O)N2CC(c3nn(Cc4nc(-c5ccc(F)cc5)no4)c4cccc(F)c34)C2)ccn1 [Compound E-104, 4-[3-(4-fluoro-1-{[3-(4-fluorophenyl)-1,2,4-oxadiazol-5-yl]methyl}-1H-indazol-3-yl)azetidine,1-carbonyl)pyridin-2-amine] | 110 | 5.2
9 | Nc1cc(C(=O)N2CC(c3nn(CC(=O)N4CCC[C@H]4C(F)(F)F)c4ccncc34)C2)ccn1 [Compound E-13, 2-{3-[1-(2-aminopyridine-4-carbonyl)azetidin-3-yl]-1H-pyrazolo[4,3-c]pyridin-1-yl]-1-[(2S)-2-(trifluoromethyl)pyrrolidin-1-yl]ethan-1-one hydrochloride] | 1200 | 47
10 | Nc1cc(C(=O)N2CC(c3nn(Cc4cccc(C(F)(F)F)c4)c4cccc(F)c34)C2)ccn1 [Compound E-113, 4-[3-(4-fluoro-1-{[3-(trifluoromethyl)phenyllmethyl}-1H-indazol-3-yl)azetidine-1-carbonyl]pyridin-2-amine hydrochloride] | 470 | 25
11 | Cc1nc(N)sc1C(=O)N1CC(c2nn(CC(=O)N3CCC[C@H]3C(F)(F)F)c3ccccc23)C1 [Compound E-197, 2-(3-[1-(2-amino-4-methyl-1,3-thiazole-5-carbonyl)azetidin-3-yl]-1H-indazol-1-yl}-1-[(2S)-2-(trifluoromethyl)pyrrolidin-1-yl]ethan-1-one] | 150 | 2.3
12 | Nc1cc(C(=O)N2CC(c3nn(CC(=O)N4CCC[C@H]4C(F)(F)F)c4cc(F)ccc34)C2)c(F)cn1 [Compound E-275, 2-{3-[1-(2-amino-5-fluoropyridine-4-carbonyl)azetidin-3-yl]-6-fluoro-1H-indazol-1-yl}-1-[(2S)-2-(trifluoromethyl)pyrrolidin-1-yl]ethan-1-one] | 21 | 4.8

Continued, values first:

Row | IC50 (DDR1 kinase [1]) [nM] | IC50 (DDR1 kinase [2]) [nM] | SMILES
13 | 96 | 7.4 | Nc1cc(C(=O)N2CCC(c3nn(CC(=O)N4CCO[C@H](C(F)(F)F)C4)c4cccc(F)c34)CC2)ccn1 [Compound E-90, 2-{3-[1-(2-aminopyridine-4-carbonyl)piperidin-4-yl]-4-fluoro-1H-indazol-1-yl]-1-[(2S)-2-(trifluoromethyl)morpholin-4-yl]ethan-1-one]
14 | 74 | 13 | Nc1cc(C(=O)N2CC(c3nn(Cc4nc(C(F)(F)F)no4)c4ccccc34)C2)ccn1 [Compound E-218]
15 | 38 | 4.8 | CN(CC(F)F)C(=O)Cn1nc(C2CN(C(=O)c3cc(N)ncc3F)C2)c2ccccc21 [Compound E-269, 2-{3-[1-(2-amino-5-fluoropyridine-4-carbonyl)azetidin-3-yl]-1H-indazol-1-yl}-N-(2,2-difluoroethyl)-N-methylacetamide]
16 | 81 | 6 | CN(CC1CC1)C(=O)Cn1nc(C2CN(C(=O)c3ccnc(N)c3)C2)c2ccccc21 [Compound E-229, 2-{3-[1-(2-aminopyridine-4-carbonyl)azetidin-3-yl]-1H-indazol-1-yl}-N-(cyclopropylmethyl)-N-methylacetamide]
17 | 13 | 5.6 | Nc1cc(C(=O)N2CC(c3nn(CC(=O)N4CCO[C@@H](C(F)(F)F)C4)c4cc(F)cc(F)c34)C2)ccn1 [Compound E-73, 2-(3-[1-(2-aminopyridine-4-carbonyl)azetidin-3-yl]-4,6-difluoro-1H-indazol-1-yl}-1-l(2R)-2-(trifluoromethyl)morpholin-4-yl]ethan-1-one hydrochloride]
18 | 33 | 15 | O=C(c1ccnc(NC2CCC(F)(F)CC2)c1)N1CC(c2nn(CC(=O)N3CCC[C@H]3C(F)(F)F)c3cc(F)cc(F)c23)C1 [Compound E-75, 2-[3-(1-{2-[(4,4-difluorocyclohexyl)aminolpyridine-4-carbonyl}azetidin-3-yl)-4,6-difluoro-1H-indazol-1-yl]-1-[(2S)-2-(trifluoromethyl)pyrrolidin-1-yl]ethan-1-one hydrochloride]
19 | 610 | 11 | Nc1cc(C(=O)N2CCC(c3nn(CC(=O)N4CCO[C@@H](C(F)(F)F)C4)c4cccc(F)c34)CC2)ccn1 [Compound E-91, 2-{3-[1-(2-aminopyridine-4-carbonyl)piperidin-4-yl]-4-fluoro-1H-indazol-1-yl]-1-[(2R)-2-(trifluoromethyl)morpholin-4-yl]ethan-1-one]
